{"source": "patent US12351651B2", "about": "“Polypeptide for repairing mucosal damage or skin wound and use thereof” (Sichuan Gooddoctor Panxi Pharmaceutical Co., Ltd., priority 2020, dated 2025)", "note": "“And” between values parts separate entries of the source, which are not always exact repeats. Equal entries are not always repeated. Marks after values point to notes of the source that are not given here. No end group written: not given here.", "data": [{"tested_on": "ethanol-induced gastric ulcer in mice", "assay": "Ethanol-induced gastric ulcer in mice, administration once a day for 8 days", "format": "in vivo, C57BL/6 mice", "details": "absolute ethanol, gavage once a day for 8 days, SEQ ID NO: 1 1 mg/kg, teprenone 160 mg/kg, n = 10, x ± s", "method": "1. Experimental animal: SPF grade C57BL/6 mice, from Chengdu Yaokang Biotechnology Ltd, animal license number: SCXK (Chuan) 2020-034.\n2. Method: After adaptive feeding, the mice were randomly divided into four groups with 10 mice in each group, namely, control group (normal group), model group (modeling with absolute ethanol), positive drug group (teprenone 160 mg/kg) and SEQ ID NO: 1 group (1 mg/kg). After the animals were grouped, the control group and model group were treated with pure water, and the other dosed groups were treated with the corresponding drugs once a day for 8 consecutive days. On the 7th day, after treatment, all the animals were fasted for 24 h with free access to water. […] The stomach was cut open along the greater curvature, the content of the stomach was cleaned off with normal saline, and the ulcer index was calculated after being laid flat. Calculation method for ulcer index: If the length of cord-like injury was greater than 1 mm, the length thereof was measured, with 1 point per millimeter; if the width thereof was greater than 1 mm, the score thereof was doubled according to the number of millimeters of the width; and if the length was less than 1 mm, a score of 0.5 was given, and the scores were added up to obtain the ulcer index of the animal.", "values": [{"substance": "teprenone", "Ulcer index": "13.42 ± 7.61"}]}, {"tested_on": "ethanol-induced gastric ulcer model in mice", "assay": "Anti-ulcer activity of single administration in ethanol-induced model in mice", "format": "in vivo, C57BL/6 mice", "details": "single administration by gavage, 0.2 mg/kg, 1 h before absolute ethanol; relative to compound of SEQ ID NO: 1", "method": "1. Experimental animal: SPF grade C57BL/6 mice, from Chengdu Yaokang Shengwu Keji Youxian Gongsi, animal license number: SCXK (Chuan) 2020-034.\nAfter adaptive feeding, all the animals were fasted for 24 h with free access to water after administration one day before the experiment. Before modeling, the experimental mice were randomly divided into groups: blank group (5 mice), model group (10 mice), and treatment groups (10 mice per group). Except for the blank group and the model group, which were given sterile water by gavage, the treatment groups were administered with different test compounds by gavage at a dose of 0.2 mg/kg, respectively. One hour after administration, the mice received 0.9 ml/kg absolute ethanol by oral gavage for modeling. After 1 h, the animals were sacrificed by cervical dislocation, the gastric cardia was ligated, the pylorus was occluded, and the whole stomach was removed. 1 mL of 1% formaldehyde solution was injected into the gastric lumen, the cardia was ligated, and the stomach was taken out and immediately immersed in 1% formaldehyde solution. After 30 min, the stomach tissue was taken out and cut open along the greater curvature. The content of the stomach was rinsed off with normal saline, the injury of gastric mucosa in mice were observed and measured after being laid flat, and the ulcer index and ulcer inhibition rate were calculated.\nCalculation method for ulcer index: If the length of cord-like injury was greater than 1 mm, the length thereof was measured, with 1 point per millimeter; if the width thereof was greater than 1 mm, the score thereof was doubled according to the number of millimeters of the width; and if the length was less than 1 mm, a score of 0.5 was given, and the scores were added to obtain the ulcer index of the animal. • Ulcer inhibition rate=(ulcer index of model group-ulcer index of treatment group)/ulcer index of model group*100%; and • Relative ulcer inhibition rate=(ulcer inhibition rate of test compound)/(ulcer inhibition rate of Compound 1).", "values": [{"substance": "AEPVPL [SEQ ID NO: 30]", "Anti-ulcer activity (mean relative ulcer inhibition rate)": "+++ (relative ulcer inhibition rate 0.9-1.20, denoted as “+++”)"}, {"substance": "AEPVPLVKQD [SEQ ID NO: 27]", "Anti-ulcer activity (mean relative ulcer inhibition rate)": "+++ (relative ulcer inhibition rate 0.9-1.20, denoted as “+++”)"}, {"substance": "Ala-Glu-Pro-Val (AEPV) [SEQ ID NO: 45]", "Anti-ulcer activity (mean relative ulcer inhibition rate)": "− (relative ulcer inhibition rate <0, denoted as “−”)"}, {"substance": "Ala-Glu-Pro-Val-Pro (AEPVP) [SEQ ID NO: 44]", "Anti-ulcer activity (mean relative ulcer inhibition rate)": "+ (relative ulcer inhibition rate 0.3-0.6, denoted as “+”)"}, {"substance": "EPVPLVKQD [SEQ ID NO: 38]", "Anti-ulcer activity (mean relative ulcer inhibition rate)": "+++ (relative ulcer inhibition rate 0.9-1.20, denoted as “+++”)"}, {"substance": "Glu-Pro-Val-Pro-Leu (EPVPL) [SEQ ID NO: 31]", "Anti-ulcer activity (mean relative ulcer inhibition rate)": "+++ (relative ulcer inhibition rate 0.9-1.20, denoted as “+++”)"}, {"substance": "PAADPVPLVKQD [SEQ ID NO: 11]", "Anti-ulcer activity (mean relative ulcer inhibition rate)": "++ (relative ulcer inhibition rate 0.6-0.9, denoted as “++”)"}, {"substance": "PAAEGVGLVKQD [SEQ ID NO: 8]", "Anti-ulcer activity (mean relative ulcer inhibition rate)": "+ (relative ulcer inhibition rate 0.3-0.6, denoted as “+”)"}, {"substance": "PAAEPV [SEQ ID NO: 34]", "Anti-ulcer activity (mean relative ulcer inhibition rate)": "/ (0< relative ulcer inhibition rate <0.3, denoted as “/” (very low activity))"}, {"substance": "PAAEPVPFVKQD [SEQ ID NO: 12]", "Anti-ulcer activity (mean relative ulcer inhibition rate)": "/ (0< relative ulcer inhibition rate <0.3, denoted as “/” (very low activity))"}, {"substance": "PAAEPVPL [SEQ ID NO: 26]", "Anti-ulcer activity (mean relative ulcer inhibition rate)": "+++ (relative ulcer inhibition rate 0.9-1.20, denoted as “+++”)"}, {"substance": "PAAEPVPLIKQD [SEQ ID NO: 64]", "Anti-ulcer activity (mean relative ulcer inhibition rate)": "+ (relative ulcer inhibition rate 0.3-0.6, denoted as “+”)"}, {"substance": "PAAEPVPLVK [SEQ ID NO: 3]", "Anti-ulcer activity (mean relative ulcer inhibition rate)": "+++ (relative ulcer inhibition rate 0.9-1.20, denoted as “+++”)"}, {"substance": "PAAEPVPLVKED [SEQ ID NO: 57]", "Anti-ulcer activity (mean relative ulcer inhibition rate)": "++ (relative ulcer inhibition rate 0.6-0.9, denoted as “++”)"}, {"substance": "PAAEPVPLVKND [SEQ ID NO: 58]", "Anti-ulcer activity (mean relative ulcer inhibition rate)": "/ (0< relative ulcer inhibition rate <0.3, denoted as “/” (very low activity))"}, {"substance": "PAAEPVPLVKQE [SEQ ID NO: 60]", "Anti-ulcer activity (mean relative ulcer inhibition rate)": "+ (relative ulcer inhibition rate 0.3-0.6, denoted as “+”)"}, {"substance": "PAAEPVPLVKQN [SEQ ID NO: 50]", "Anti-ulcer activity (mean relative ulcer inhibition rate)": "/ (0< relative ulcer inhibition rate <0.3, denoted as “/” (very low activity))"}, {"substance": "PAAQPVPLVKQD [SEQ ID NO: 10]", "Anti-ulcer activity (mean relative ulcer inhibition rate)": "++++ (Relative ulcer inhibition rate >1.20, denoted as “++++”)"}, {"substance": "PAAVPVPLVKQD [SEQ ID NO: 67]", "Anti-ulcer activity (mean relative ulcer inhibition rate)": "+ (relative ulcer inhibition rate 0.3-0.6, denoted as “+”)"}, {"substance": "PAGEPVPLVKQD [SEQ ID NO: 48]", "Anti-ulcer activity (mean relative ulcer inhibition rate)": "++ (relative ulcer inhibition rate 0.6-0.9, denoted as “++”)"}, {"substance": "PIAEPVPLVKQD [SEQ ID NO: 56]", "Anti-ulcer activity (mean relative ulcer inhibition rate)": "− (relative ulcer inhibition rate <0, denoted as “−”)"}, {"substance": "PVPLVKQD [SEQ ID NO: 28]", "Anti-ulcer activity (mean relative ulcer inhibition rate)": "+++ (relative ulcer inhibition rate 0.9-1.20, denoted as “+++”)"}, {"substance": "Pro-Ala-Ala-Glu-Pro (PAAEP) [SEQ ID NO: 35]", "Anti-ulcer activity (mean relative ulcer inhibition rate)": "+ (relative ulcer inhibition rate 0.3-0.6, denoted as “+”)"}, {"substance": "Pro-Val-Pro-Leu (PVPL) [SEQ ID NO: 32]", "Anti-ulcer activity (mean relative ulcer inhibition rate)": "+++ (relative ulcer inhibition rate 0.9-1.20, denoted as “+++”)"}, {"substance": "Val-Pro-Leu-Val (VPLV) [SEQ ID NO: 73]", "Anti-ulcer activity (mean relative ulcer inhibition rate)": "++ (relative ulcer inhibition rate 0.6-0.9, denoted as “++”)"}]}, {"tested_on": "subintestinal vascular branches of zebrafish", "assay": "Repair of simvastatin-induced vascular injury in zebrafish", "format": "in vivo", "details": "500 ng/fish intravenous injection, 28° C., 2 days", "excerpt": "Method: The blood vessels of transgenic vascular green fluorescent zebrafish (Fli-1) were labeled by green fluorescent protein, which was clearly visible under a fluorescence microscope (FIG. 9, the dotted frame in FIG. 9 (yellow in the original picture) was the intestinal blood vessel at the analysis site, and the arrow (white in the original picture) pointed to subintestinal vascular branches), and it became a model organism for observing vascular change. Zebrafish Fli-1 was naturally mated in pairs for breeding. Zebrafish Fli-1 was randomly selected and placed in a 6-well plate one day after fertilization, with 30 fish per well (experimental group). The zebrafish in the normal control group were treated with standard dilution water, and each of the other experimental groups was induced with aqueous simvastatin for 3 hours to establish a zebrafish microvascular loss model. After 3 hours, the aqueous solutions in all the groups were replaced with standard dilution water, and simvastatin induction was terminated. […] Ten zebrafish in each group were randomly selected and photographed under the fluorescence microscope. NIS-Elements D 3.20 advanced image processing software was used for analysis and data collection, and the number of subintestinal vascular branches was analyzed.", "values": [{"substance": "PAAEPVPL [SEQ ID NO: 26]", "subintestinal microvascular loss caused by simvastatin / number of subintestinal vascular branches": "significantly reverse"}]}, {"tested_on": "not listed separately", "assay": "Gastric and intestinal stability test of polypeptide samples", "format": "in vitro ADME", "details": "artificial gastric juice (W), 37° C., 1 hour, HPLC peak area", "method": "(§1) Method: 1 mg of each of the samples to be tested (Compounds 1, 26, 27 and 28 and EGF) were taken and dissolved in 1 ml of water. 100 ul of sample solution was taken, 900 ul of water was added, and they were uniformly mixed, as a control solution. 100 ul of each sample solution was taken, and 900 ul of artificial gastric juice (W), artificial intestinal juice (X), povidone-iodine solution (I), and hydrogen peroxide solution (O) were respectively added. The solution was placed in a constant temperature water bath at 37° C. for 1 hour, and left to stand for cooling and filtering, as a test solution. The peak areas of the sample before and after treatment were respectively detected by high performance liquid chromatography, and the experimental results were compared based on the peak areas of the samples. The original solution without any treatment after being diluted with water was used as a control, and the changes in the peak areas (contents) of test solutions at corresponding positions were compared and counted.", "values": [{"substance": "AEPVPLVKQD [SEQ ID NO: 27]", "W Retained %": "100% and 97%"}, {"substance": "PAAEPVPL [SEQ ID NO: 26]", "W Retained %": "100%"}, {"substance": "PVPLVKQD [SEQ ID NO: 28]", "W Retained %": "100% and 96%"}]}, {"tested_on": "not listed separately", "assay": "Gastric and intestinal stability test of polypeptide samples", "format": "in vitro ADME", "details": "artificial intestinal juice (X), 37° C., 1 hour, HPLC peak area", "method": "as §1", "units": {"X Retained %": "%"}, "values": [{"substance": "AEPVPLVKQD [SEQ ID NO: 27]", "X Retained %": 0}, {"substance": "PVPLVKQD [SEQ ID NO: 28]", "X Retained %": 0}]}, {"tested_on": "not listed separately", "assay": "Gastric and intestinal stability test of polypeptide samples", "format": "in vitro ADME", "details": "hydrogen peroxide solution (O), 37° C., 1 hour, HPLC peak area", "method": "as §1", "values": [{"substance": "AEPVPLVKQD [SEQ ID NO: 27]", "O Retained %": "100% and 101%"}, {"substance": "PAAEPVPL [SEQ ID NO: 26]", "O Retained %": "100% and 102%"}, {"substance": "PVPLVKQD [SEQ ID NO: 28]", "O Retained %": "100% and 99%"}]}, {"tested_on": "not listed separately", "assay": "Gastric and intestinal stability test of polypeptide samples", "format": "in vitro ADME", "details": "povidone-iodine solution (I), 37° C., 1 hour, HPLC peak area", "method": "as §1", "values": [{"substance": "AEPVPLVKQD [SEQ ID NO: 27]", "I Retained %": "100%"}, {"substance": "PAAEPVPL [SEQ ID NO: 26]", "I Retained %": "100% and 101%"}, {"substance": "PVPLVKQD [SEQ ID NO: 28]", "I Retained %": "100% and 99%"}]}, {"tested_on": "aspirin-induced gastric ulcer in rats", "assay": "Aspirin-induced gastric ulcer in rats", "format": "in vivo, SD rats", "details": "0.3 mg/kg oral gavage once a day for 8 consecutive days", "method": "(§2) Method: After adaptive feeding, SD rats were divided into three groups (10 rats in each group) by Excel-based complete randomization, namely, a control group, a model group, and a the compound of SEQ ID NO: 1 (0.3 mg/kg) group. After the animals were grouped, they were given corresponding treatments (the control group and the model group were given the same volume of purified water, and the SEQ ID NO: 1 group was given corresponding drug treatment) once a day for 8 consecutive days. On the 7th day after administration, all the animals were fasted for 24 h with free access to water. On the 8th day, except for the control group, the rats in the SEQ ID NO: 1 group and the model group were orally given 250 mg/kg aspirin solution for modeling 30 min after compound administration (or given water). 4 h after modeling, the animals were sacrificed, the cardia was ligated, the pylorus was occluded, and the whole stomach was removed. 8 mL of 1% formaldehyde solution was injected into the gastric lumen, the pylorus was ligated, and the stomach was taken out and immediately immersed in 1% formaldehyde solution for fixation. After 30 min, the stomach was cut open along the greater curvature, the content of the stomach was cleaned off with normal saline, and after the stomach was laid flat, the stomach was observed, and panoramic photos were taken to measure the ulcer area.", "values": [{"substance": "PAAEPVPLVKQD [SEQ ID NO: 1, Pro-Ala-Ala-Glu-Pro-Val-Pro-Leu-Val-Lys-Gln-Asp]", "weight change": "no obvious effects"}]}, {"tested_on": "aspirin-induced gastric ulcer in rats", "assay": "Aspirin-induced gastric ulcer in rats", "format": "in vivo, SD rats", "details": "rats, 0.3 mg/kg gavage once a day for 8 days, aspirin 250 mg/kg", "method": "as §2", "values": [{"substance": "SEQ ID NO. 1 (PAAEPVPLVKQD)", "Ulcer area": "20.55 ± 10.45** mm^2"}]}]}
